Laboratory results: US9738634B2, “Heterocyclic amide compound and herbicide” (SYNGENTA PARTICIPATIONS AG, priority 2013, dated 2017)

How the values were obtained:
Assay type in all cases: in vivo
Settings in all cases: treatment dosage 320 g/ha
Italian ryegrass [1] = assay: Test Example 4: weedkilling efficacy by foliar treatment; I: Italian ryegrass
Summary of the method: (§1)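 Seeds are spot-sown into sterilized diluvial soil and covered with about 1.5 cm of soil. After 14 days' greenhouse growth at 25 to 30° C, plants are sprayed on stems and leaves with diluted emulsion at the stated g/ha rate, then scored at 3 weeks.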

catchweed [2] = assay: Test Example 3: weedkilling efficacy through soil treatment; O: catchweed
Summary of the method: (§2)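 Crop and weed responses were judged three weeks after a uniform surface spray of the water-diluted emulsion at the given g/ha rate. Seeds sat beneath about 1.5 cm of sterilized diluvial soil, and boxes stood in a greenhouse at 25 to 30° C.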

beet [3] = assay: Test Example 3: soil treatment, effect on crop; f: beet
Summary of the method: as §2

transplanted rice = assay: Test Example 1: preemergent weed treatment in the submerged state, effect on crop; a: transplanted rice
Summary of the method: (§3)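 Pots of alluvial soil flooded 4 cm deep, sown with barnyard grass, bulrush and oval-leafed pondweed and transplanted with 2.5-leaf rice. Emulsified compound applied to the water surface on sowing day at stated g/ha; greenhouse 25–30 °C, effects assessed 3 weeks after treatment.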

Italian ryegrass [4] = assay: Test Example 3: weedkilling efficacy through soil treatment; I: Italian ryegrass
Summary of the method: as §2

barnyard grass [5] = assay: Test Example 1: weedkilling efficacy, preemergent weed treatment in the submerged state; A: barnyard grass
Summary of the method: as §3

catchweed [6] = assay: Test Example 4: weedkilling efficacy by foliar treatment; O: catchweed
Summary of the method: as §1

rapeseed [7] = assay: Test Example 4: foliar treatment, effect on crop; g: rapeseed
Summary of the method: as §1

black-grass [8] = assay: Test Example 4: weedkilling efficacy by foliar treatment; H: black-grass
Summary of the method: as §1

barnyard grass [9] = assay: Test Example 2: weedkilling efficacy, growth period weed treatment in the submerged state; A: barnyard grass
Summary of the method: (§4)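 Barnyard grass, bulrush and oval-leafed pondweed sown in alluvial soil under 4 cm flooding, greenhouse 25 to 30° C. At 1-2 leaf stage, water-diluted emulsion applied to the water surface at stated g/ha dosages; effects scored 3 weeks later.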

green foxtail [10] = assay: Test Example 3: weedkilling efficacy through soil treatment; E: green foxtail
Summary of the method: as §2

corn [11] = assay: Test Example 3: soil treatment, effect on crop; c: corn
Summary of the method: as §2

redroot pigweed [12] = assay: Test Example 4: weedkilling efficacy by foliar treatment; L: redroot pigweed
Summary of the method: as §1

fig-leafed goosefoot [13] = assay: Test Example 3: weedkilling efficacy through soil treatment; M: fig-leafed goosefoot
Summary of the method: as §2

bulrush [14] = assay: Test Example 2: weedkilling efficacy, growth period weed treatment in the submerged state; B: bulrush
Summary of the method: as §4

chickweed [15] = assay: Test Example 3: weedkilling efficacy through soil treatment; N: chickweed
Summary of the method: as §2

Indian mallow [16] = assay: Test Example 4: weedkilling efficacy by foliar treatment; K: Indian mallow
Summary of the method: as §1

wild oat [17] = assay: Test Example 3: weedkilling efficacy through soil treatment; G: wild oat
Summary of the method: as §2

corn [18] = assay: Test Example 4: foliar treatment, effect on crop; c: corn
Summary of the method: as §1

oval-leafed pondweed [19] = assay: Test Example 1: weedkilling efficacy, preemergent weed treatment in the submerged state; C: oval-leafed pondweed
Summary of the method: as §3

oval-leafed pondweed [20] = assay: Test Example 2: weedkilling efficacy, growth period weed treatment in the submerged state; C: oval-leafed pondweed
Summary of the method: as §4

wheat [21] = assay: Test Example 4: foliar treatment, effect on crop; e: wheat
Summary of the method: as §1

barnyard grass [22] = assay: Test Example 3: weedkilling efficacy through soil treatment; F: barnyard grass
Summary of the method: as §2

fig-leafed goosefoot [23] = assay: Test Example 4: weedkilling efficacy by foliar treatment; M: fig-leafed goosefoot
Summary of the method: as §1

soybean [24] = assay: Test Example 4: foliar treatment, effect on crop; d: soybean
Summary of the method: as §1

barnyard grass [25] = assay: Test Example 4: weedkilling efficacy by foliar treatment; F: barnyard grass
Summary of the method: as §1

beet [26] = assay: Test Example 4: foliar treatment, effect on crop; f: beet
Summary of the method: as §1

wheat [27] = assay: Test Example 3: soil treatment, effect on crop; e: wheat
Summary of the method: as §2

redroot pigweed [28] = assay: Test Example 3: weedkilling efficacy through soil treatment; L: redroot pigweed
Summary of the method: as §2

black-grass [29] = assay: Test Example 3: weedkilling efficacy through soil treatment; H: black-grass
Summary of the method: as §2

Indian mallow [30] = assay: Test Example 3: weedkilling efficacy through soil treatment; K: Indian mallow
Summary of the method: as §2

birds-eye speedwell = assay: Test Example 3: weedkilling efficacy through soil treatment; p: birds-eye speedwell
Summary of the method: as §2

green foxtail [31] = assay: Test Example 4: weedkilling efficacy by foliar treatment; E: green foxtail
Summary of the method: as §1

directly sown rice [32] = assay: Test Example 3: soil treatment, effect on crop; b: directly sown rice
Summary of the method: as §2

crabgrass [33] = assay: Test Example 3: weedkilling efficacy through soil treatment; D: crabgrass
Summary of the method: as §2

directly sown rice [34] = assay: Test Example 4: foliar treatment, effect on crop; b: directly sown rice
Summary of the method: as §1

bulrush [35] = assay: Test Example 1: weedkilling efficacy, preemergent weed treatment in the submerged state; B: bulrush
Summary of the method: as §3

wild oat [36] = assay: Test Example 4: weedkilling efficacy by foliar treatment; G: wild oat
Summary of the method: as §1

rapeseed [37] = assay: Test Example 3: soil treatment, effect on crop; g: rapeseed
Summary of the method: as §2

common wind-grass [38] = assay: Test Example 3: weedkilling efficacy through soil treatment; J: common wind-grass
Summary of the method: as §2

crabgrass [39] = assay: Test Example 4: weedkilling efficacy by foliar treatment; D: crabgrass
Summary of the method: as §1

common wind-grass [40] = assay: Test Example 4: weedkilling efficacy by foliar treatment; J: common wind-grass
Summary of the method: as §1

soybean [41] = assay: Test Example 3: soil treatment, effect on crop; d: soybean
Summary of the method: as §2

chickweed [42] = assay: Test Example 4: weedkilling efficacy by foliar treatment; N: chickweed
Summary of the method: as §1

CC1=C(c2ccccc2)C(=O)N(C(C)(C)C(=O)Nc2cc(C)cc(Cl)n2)CO1 [B-2-43]
I (Italian ryegrass) weedkilling efficacy grade (Italian ryegrass [1]): 5 (weed kill ratio 90% or more, (practically complete withering)) | O (catchweed) weedkilling efficacy grade (catchweed [2]): 4 (weed kill ratio 70% or more, less than 90%) | f (beet) effect on crop grade (beet [3]): 4 (weed kill ratio 70% or more, less than 90%) | a (transplanted rice) effect on crop grade (transplanted rice): 3 (weed kill ratio 40% or more, less than 70%) | I (Italian ryegrass) weedkilling efficacy grade (Italian ryegrass [4]): 5 (weed kill ratio 90% or more, (practically complete withering)) | A (barnyard grass) weedkilling efficacy grade (barnyard grass [5]): 5 (weed kill ratio 90% or more, (practically complete withering)) | O (catchweed) weedkilling efficacy grade (catchweed [6]): 1 (weed kill ratio 5% or more, less than 20%) | g (rapeseed) effect on crop grade (rapeseed [7]): 4 (weed kill ratio 70% or more, less than 90%) | H (black-grass) weedkilling efficacy grade (black-grass [8]): 5 (weed kill ratio 90% or more, (practically complete withering)) | A (barnyard grass) weedkilling efficacy grade (barnyard grass [9]): 5 (weed kill ratio 90% or more, (practically complete withering)) | E (green foxtail) weedkilling efficacy grade (green foxtail [10]): 4 (weed kill ratio 70% or more, less than 90%) | c (corn) effect on crop grade (corn [11]): 0 (weed kill ratio 5% or less (practically no effect)) | L (redroot pigweed) weedkilling efficacy grade (redroot pigweed [12]): 3 (weed kill ratio 40% or more, less than 70%) | M (fig-leafed goosefoot) weedkilling efficacy grade (fig-leafed goosefoot [13]): 3 (weed kill ratio 40% or more, less than 70%) | B (bulrush) weedkilling efficacy grade (bulrush [14]): 5 (weed kill ratio 90% or more, (practically complete withering)) | N (chickweed) weedkilling efficacy grade (chickweed [15]): 4 (weed kill ratio 70% or more, less than 90%) | K (Indian mallow) weedkilling efficacy grade (Indian mallow [16]): 3 (weed kill ratio 40% or more, less than 70%) | G (wild oat) weedkilling efficacy grade (wild oat [17]): 5 (weed kill ratio 90% or more, (practically complete withering)) | c (corn) effect on crop grade (corn [18]): 3 (weed kill ratio 40% or more, less than 70%) | C (oval-leafed pondweed) weedkilling efficacy grade (oval-leafed pondweed [19]): 5 (weed kill ratio 90% or more, (practically complete withering)) | C (oval-leafed pondweed) weedkilling efficacy grade (oval-leafed pondweed [20]): 5 (weed kill ratio 90% or more, (practically complete withering)) | e (wheat) effect on crop grade (wheat [21]): 0 (weed kill ratio 5% or less (practically no effect)) | F (barnyard grass) weedkilling efficacy grade (barnyard grass [22]): 5 (weed kill ratio 90% or more, (practically complete withering)) | M (fig-leafed goosefoot) weedkilling efficacy grade (fig-leafed goosefoot [23]): 4 (weed kill ratio 70% or more, less than 90%) | d (soybean) effect on crop grade (soybean [24]): 4 (weed kill ratio 70% or more, less than 90%) | F (barnyard grass) weedkilling efficacy grade (barnyard grass [25]): 5 (weed kill ratio 90% or more, (practically complete withering)) | f (beet) effect on crop grade (beet [26]): 3 (weed kill ratio 40% or more, less than 70%) | e (wheat) effect on crop grade (wheat [27]): 1 (weed kill ratio 5% or more, less than 20%) | L (redroot pigweed) weedkilling efficacy grade (redroot pigweed [28]): 3 (weed kill ratio 40% or more, less than 70%) | H (black-grass) weedkilling efficacy grade (black-grass [29]): 5 (weed kill ratio 90% or more, (practically complete withering)) | K (Indian mallow) weedkilling efficacy grade (Indian mallow [30]): 0 (weed kill ratio 5% or less (practically no effect)) | P (birds-eye speedwell) weedkilling efficacy grade (birds-eye speedwell): 5 (weed kill ratio 90% or more, (practically complete withering)) | E (green foxtail) weedkilling efficacy grade (green foxtail [31]): 5 (weed kill ratio 90% or more, (practically complete withering)) | b (directly sown rice) effect on crop grade (directly sown rice [32]): 3 (weed kill ratio 40% or more, less than 70%) | D (crabgrass) weedkilling efficacy grade (crabgrass [33]): 5 (weed kill ratio 90% or more, (practically complete withering)) | b (directly sown rice) effect on crop grade (directly sown rice [34]): 5 (weed kill ratio 90% or more, (practically complete withering)) | B (bulrush) weedkilling efficacy grade (bulrush [35]): 5 (weed kill ratio 90% or more, (practically complete withering)) | G (wild oat) weedkilling efficacy grade (wild oat [36]): 3 (weed kill ratio 40% or more, less than 70%) | g (rapeseed) effect on crop grade (rapeseed [37]): 4 (weed kill ratio 70% or more, less than 90%) | J (common wind-grass) weedkilling efficacy grade (common wind-grass [38]): 5 (weed kill ratio 90% or more, (practically complete withering)) | D (crabgrass) weedkilling efficacy grade (crabgrass [39]): 5 (weed kill ratio 90% or more, (practically complete withering)) | J (common wind-grass) weedkilling efficacy grade (common wind-grass [40]): 5 (weed kill ratio 90% or more, (practically complete withering)) | d (soybean) effect on crop grade (soybean [41]): 2 (weed kill ratio 20% or more, less than 40%) | N (chickweed) weedkilling efficacy grade (chickweed [42]): 3 (weed kill ratio 40% or more, less than 70%)
